Structures are written as SMILES.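 Exposure lasted 48 hours, with cells grown in 96-well plates and compounds tested at five concentrations. Definition used: TGI = concentration required for complete inhibition of growth.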 Where only a bound is given, the exact number is not on record here.

Here are results for twelve molecules from PubChem BioAssay (NCI).

Among the test systems are KM12 colon; MCF7 breast; MDA-MB-231 breast; NCI-H522 lung; OVCAR-5 ovarian; OVCAR-8 ovarian; RXF 393 renal; SF-268 CNS; SK-MEL-28 melanoma; SN12C renal; T-47D breast; U251 CNS; SK-MEL-2 melanoma.
What all share (test): NCI anticancer screen, dose series, 48 h

Take `Cc1nc(C)c(N2CCN(C(=O)NC(CCC(=O)O)C(=O)O)CC2)c(=O)[nH]1` (configuration not stated): the TGI in the assay on KM12 colon, in the assay on MCF7 breast, with MDA-MB-231 breast, in the assay with NCI-H522 lung, in the assay on OVCAR-5 ovarian and in the assay on OVCAR-8 ovarian was more than 100 µM in each case. Also, the TGI in the assay on RXF 393 renal, in the assay with SF-268 CNS, with SK-MEL-28 melanoma, with SN12C renal, in the assay with T-47D breast and with U251 CNS was more than 100 µM each time.
Consider `CC(=O)N1c2ccccc2C2=NN=C(N(C)C)SC21` (configuration not stated), for which the TGI with KM12 colon turned out to be 11.2 µM; with MCF7 breast it was 14.9 µM; in the assay on MDA-MB-231 breast, 11 µM; with NCI-H522 lung, 6.68 µM; with OVCAR-5 ovarian, 18.1 µM; with OVCAR-8 ovarian, 12.1 µM. Besides, the TGI worked out at 16 µM in the assay on SF-268 CNS; 6.36 µM in the assay with SK-MEL-2 melanoma; 15.3 µM with SK-MEL-28 melanoma; 6.93 µM in the assay with SN12C renal; 14.9 µM in the assay with T-47D breast; 10.8 µM in the assay with U251 CNS.
Regarding `COc1ccc(-c2cc(-c3ccccc3)c3c(n2)-c2ccccc2NC(=O)C3)cc1`, the TGI was more than 100 µM with KM12 colon; more than 100 µM in the assay with MCF7 breast; more than 100 µM in the assay with MDA-MB-231 breast; more than 100 µM in the assay on OVCAR-5 ovarian; 30.1 µM in the assay on OVCAR-8 ovarian; more than 100 µM with RXF 393 renal. Moreover, the TGI in the assay on SF-268 CNS, in the assay with SK-MEL-2 melanoma, in the assay on SK-MEL-28 melanoma, in the assay with SN12C renal, with T-47D breast and in the assay on U251 CNS was more than 100 µM throughout.
Consider `COc1ccccc1-c1n[nH]c(-c2ccccc2O)n1`, for which the TGI in the assay with KM12 colon, in the assay on MCF7 breast, in the assay with MDA-MB-231 breast, with OVCAR-5 ovarian, in the assay on OVCAR-8 ovarian and with RXF 393 renal was more than 100 µM each time. For the same molecule, the TGI in the assay with SF-268 CNS, in the assay on SK-MEL-2 melanoma, in the assay on SK-MEL-28 melanoma, in the assay with SN12C renal, in the assay with T-47D breast and in the assay on U251 CNS was more than 100 µM throughout.
Turning to `CC1(C)C2CC1C(/C=N\OCC(=O)O)=CC2=O` (configuration not stated), the TGI in the assay on KM12 colon, with MCF7 breast, in the assay on MDA-MB-231 breast, with OVCAR-5 ovarian, with OVCAR-8 ovarian and in the assay with RXF 393 renal was more than 100 µM throughout. Besides, the TGI in the assay on SF-268 CNS, in the assay with SK-MEL-2 melanoma, in the assay with SK-MEL-28 melanoma, in the assay on SN12C renal, in the assay with T-47D breast and with U251 CNS was more than 100 µM throughout.
For the molecule `CCOC(=O)Nn1cnnc1Cc1ccccc1`, the TGI in the assay on KM12 colon, in the assay with MCF7 breast, in the assay with MDA-MB-231 breast, in the assay on NCI-H522 lung, in the assay with OVCAR-5 ovarian and in the assay with OVCAR-8 ovarian was more than 100 µM each time. Further, the TGI with SF-268 CNS, with SK-MEL-2 melanoma, with SN12C renal, in the assay with T-47D breast and in the assay with U251 CNS was more than 100 µM throughout.
As to `C=C[C@@]1(C)CC(=O)[C@]2(O)[C@@]3(C)[C@@H](OC(C)=O)CCC(C)(C)[C@@H]3[C@H](O)[C@H](OC(C)=O)[C@@]2(C)O1`, the TGI in the assay with KM12 colon, in the assay on MCF7 breast, in the assay on MDA-MB-231 breast, in the assay on OVCAR-5 ovarian, with OVCAR-8 ovarian and in the assay on SK-MEL-2 melanoma was more than 100 µM in each case. The TGI in the assay with SK-MEL-28 melanoma, in the assay with SN12C renal, in the assay on T-47D breast and in the assay with U251 CNS was more than 100 µM each time.
In the case of `COC(=O)C1=C(O)C(C(=O)OC)[C@]2(O)[C@H](C(=O)OC)[C@H]1C[C@@H](c1ccc(O)cc1)[C@H]2C(=O)OC` (some centres not stated), the TGI is 49.9 µM in the assay with KM12 colon; more than 100 µM in the assay with MCF7 breast; 60.7 µM with MDA-MB-231 breast; 97.1 µM with OVCAR-5 ovarian; more than 100 µM in the assay on OVCAR-8 ovarian; 45.1 µM in the assay with RXF 393 renal. The TGI in the assay on SF-268 CNS is more than 100 µM; with SK-MEL-28 melanoma, more than 100 µM; in the assay with SN12C renal, more than 100 µM; in the assay on T-47D breast, more than 100 µM; with U251 CNS, 50.1 µM.
As for `O=[N+]([O-])/C(C(Cl)=C(Cl)Cl)=C(\Nc1cccc2cccnc12)Sc1ccccc1`, the TGI in the assay with KM12 colon is 28.6 µM; with MCF7 breast, more than 100 µM; in the assay with MDA-MB-231 breast, more than 100 µM; with OVCAR-5 ovarian, more than 100 µM; with SF-268 CNS it was 42 µM; in the assay with SK-MEL-2 melanoma it was 82.5 µM. Besides, the TGI in the assay on SK-MEL-28 melanoma came to 36 µM; with SN12C renal, 87.7 µM; with T-47D breast, 38.4 µM; with U251 CNS, 54.2 µM.
In the case of `c1ccc2c(c1)Sc1ccccc1N2CCCN1c2ccccc2Sc2ccccc21`, the TGI with KM12 colon, with MCF7 breast, in the assay with MDA-MB-231 breast, with NCI-H522 lung, with OVCAR-5 ovarian and in the assay on OVCAR-8 ovarian was more than 100 µM each time. The TGI in the assay with RXF 393 renal, in the assay with SF-268 CNS, with SK-MEL-28 melanoma, in the assay with SN12C renal, in the assay on T-47D breast and with U251 CNS was more than 100 µM throughout.
For the molecule `CC(C)(C)c1cc(C(C)(C)C)c(P=C(Cl)Cl)c(C(C)(C)C)c1` (configuration not stated), the TGI in the assay on KM12 colon, in the assay on MCF7 breast, with MDA-MB-231 breast, in the assay with NCI-H522 lung, with OVCAR-5 ovarian and with OVCAR-8 ovarian was more than 100 µM each time. The TGI with SF-268 CNS, with SK-MEL-2 melanoma, with SK-MEL-28 melanoma, in the assay with SN12C renal, in the assay with T-47D breast and in the assay on U251 CNS was more than 100 µM in each case.
Turning to `COC1/C=C/C(C)C(C(C)C(OC)C(C)CCC(=O)C(C)C(CC(=O)O)OC)OC(=O)/C=C/C=C(\C)CC(OC)C(OC)C2=CC(=O)O[C@@H](C(C)C(OC)CC(OC)/C=C/C(C)C(O)C1)[C@H]2O` (some centres not stated), the TGI was more than 1.07 µM in the assay on KM12 colon; more than 1.07 µM with MCF7 breast; 0.754 µM in the assay with MDA-MB-231 breast; more than 1.07 µM in the assay on OVCAR-5 ovarian; 0.132 µM in the assay on OVCAR-8 ovarian; 0.157 µM with SF-268 CNS. Besides, the TGI in the assay on SK-MEL-2 melanoma was 0.625 µM; in the assay with SK-MEL-28 melanoma it was 0.267 µM; with SN12C renal, more than 1.07 µM; with T-47D breast it was 0.981 µM; with U251 CNS, more than 1.07 µM.
